Reference: US20090197279A1, “MICROTUBULE SYNTHESIS AS A BIOMARKER” (KINEMED, INC., priority 2005, published 2009)

Assays:
[1] = system: total hippocampal proteins; test: Fractional synthesis of total hippocampal proteins; type: in vivo, mouse; conditions: coadministration of 0.66 pmol Rp-cAMP with glutamate
Procedure: FIG. 7 depicts the effects of ICV glutamate on the relative amounts of MT subpopulations and on total protein synthesis in murine hippocampus. (A, B) Tubulin abundances are measured by Western blot analysis for α-tubulin at 8 hour (A) and 24 hours (B). Subpopulations were total extract (total), free tubulin dimers, tau-associated MTs, tau-nonassociated (MAP2/STOP) MTs and cold stable (CS) MTs. Mock and glutamate infused ICVC mice are shown (cf. FIGS. 6A and B). […] (C) Fractional synthesis of total hippocampal proteins. Glutamate increased protein synthesis versus mock-treated animals (*p<0.01); this effect was blocked by coadministration with 0.66 pmol of Rp-cAMP (**p<0.02).
This hypothesis had not previously been tested in the living brain, however. To test this hypothesis, we used the methods of the invention disclosed herein. Mice were infused with 6 μl water containing 0.48 nmol glutamate (80 μM in the infusate), or glutamate plus 0.66 pmol Rp-cAMP (110 nM in the infusate). Label incorporation into hippocampal tubulin dimers and into microtubule polymers was then quantified after administration of ^2H2O for 8 hours or 24 hours (FIGS. 7A and 7B). […] These findings further strengthen the previously reported correlation between hippocampus glutamate NMDA receptor-dependent learning (long-term potentiation) and protein synthesis (Kandel, E. R. The molecular biology of memory storage: a dialogue between genes and synapses. Science 294, 1030-1038 (2001)). By the same criterion, the glutamate-induced program of changes in hippocampal microtubule dynamics shown in FIGS. 6 and 7 also alters hippocampal total protein synthesis in vivo (data not show), further supporting the capacity of the invention disclosed herein to generate a biochemical record of basic neuroanatomic connectivity in the brain and thereby to reveal the dynamics of synaptogenesis in vivo.

[2] = system: hippocampal tubulin dimers and tau-associated, tau-nonassociated (MAP2/STOP) and cold-stable microtubules; test: 2H label incorporation into hippocampal tubulin dimers and microtubule fractions after ICVC infusion (2H2O labeling, GC/MS); type: in vivo, mouse
Procedure: In (A) and (B), mice received ICVC infusions of 6 μl water alone or containing 0.48 nmol glutamate (80 μM in the infusate), or glutamate plus 0.66 pmol Rp-cAMP (110 nM in the infusate). Animals were then labeled with ^2H2O for 8 hours (A) or 24 hours (B). At sacrifice, the hippocampal post-nuclear supernatant was fractionated as show in FIG. 5A; a separate aliquot was used for isolation of cold stable (CS) MTs (FIG. 5D). Glutamate injection stimulated label incorporation into new MAP2/STOP-MTs at 8 and 24 hours, and CS MTs at 24 hours; both were blocked by Rp-cAMP. In order to correct the effects of pharmacologic intervention on MT dynamics for the confounding changes in tubulin synthesis, the numbers above each bar express ^2H label incorporation into MT as a percentage of ^2H labeling in the corresponding tubulin dimer fractions. (C) Dose dependence of glutamate effects. ^2H2O labeling was initiated at time zero, 6 μl ICVC infusions with the indicated concentrations of glutamate were performed at 24 hours, and labeling was continued until sacrifice at 48 hours (24 hours post glutamate infusion). Hippocampal MTs were fractionated into tau-associated, MAP2-associated, and non-associated (STOP-associated) MT fractions, as in FIG. 5A. In all experiments, bars represent % new tubulin (mean±SD, n=3).
Tubulin was purified using minor modifications of protocols described previously (Fanara, P., Oback, B., Ashman, K., Podtelejnikov, A., Brandt, R. Identification of MINUS, a small polypeptide that functions as a microtubule nucleation suppressor. EMBO J. 18, 565-577 (1999); Fanara, P. et al. In vivo measurement of microtubule dynamics using stable isotope labeling with heavy water. Effect of taxanes. J. Biol. Chem. 279, 49940-49947 (2004). Briefly, cultured neurons were gently scraped off culture plates, washed in phosphate-buffered saline (PBS), and homogenized in microtubule-stabilizing buffer. For purification ex vivo, mice were anesthetized with isoflurane and euthanized by cervical dislocation. Brains were rapidly removed and washed in microtubule-stabilizing buffer (MSB); hippocampi were dissected and gently homogenized in MSB. To separate cytosolic tubulin dimers from microtubule polymers, post-nuclear supernatants were centrifuged at 190,000×g at 20° C. for 35 min. The supernatant or non-microtubule fraction (containing the soluble dimeric tubulin) was separated from the pellet or microtubule fraction (containing polymeric tubulin), quick-frozen and stored at −20° C. Microtubule pellets were further fractionated by sequential immunoaffinity chromatography steps (FIG. 3). In order to isolate tau-associated microtubules, TAU5 antibody was covalently coupled to epoxy-activated Sepharose beads (Amersham Pharmacia Biotech) at a concentration of 0.25 mg/ml. Approximately 0.2 mg of the microtubule pellet was incubated with TAU-5 beads in 0.5 ml MSB for 1 hour at room temperature. Unbound material was removed, the beads were washed three times in 0.5 ml of MSB, and bound material was eluted in 0.5 ml MSB containing 1M NaCl. In some experiments, MAP2-associated microtubules were captured from the TAU5-unbound material by immunoaffinity chromatography on epoxy-activated Sepharose beads coupled to MAP2 antibody (0.5 mg antibody per ml beads) using the same protocol. The relative abundance of tubulin in each preparation (Tubulin dimers and TAU5-bound, MAP2-bound, and unbound microtubule fractions) was quantified by Western blot, and tubulin from these fractions was further purified by ion exchange and size exclusion chromatography, as previously described (Fanara, P. et al. In vivo measurement of microtubule dynamics using stable isotope labeling with heavy water. Effect of taxanes. J. Biol. Chem. 279, 49940-49947 (2004)). […]

[3] = Toxicity of maintained body water 2H2O enrichment; type: in vivo; conditions: 1-10% of total body water labeled, maintained for weeks or months; >100 human subjects
Excerpt: Relatively high body water enrichments of ^2H2O (e.g., 1-10% of the total body water is labeled) may be achieved relatively inexpensively using the techniques of the invention. […] This finding in a large number of human subjects (>100 people) is contrary to previous concerns about vestibular toxicities at high doses of ^2H2O. One of the Applicants has discovered that as long as rapid changes in body water enrichment are prevented (e.g., by initial administration in small, divided doses), high body water enrichments of ^2H2O can be maintained with no toxicities. For example, the low expense of commercially available ^2H2O allows long-term maintenance of enrichments in the 1-5% range at relatively low expense (e.g., calculations reveal a lower cost for 2 months labeling at 2% ^2H2O enrichment, and thus 7-8% enrichment in the alanine precursor pool, than for 12 hours labeling of ^2H-leucine at 10% free leucine enrichment, and thus 7-8% enrichment in leucine precursor pool for that period).

Compound	glutamate-induced increase in total hippocampal protein synthesis [1]	glutamate-stimulated label incorporation into new MAP2/STOP-MTs ([2]; 0.48 nmol glutamate plus 0.66 pmol Rp-cAMP ICVC, 8 and 24 hours)	glutamate-stimulated label incorporation into CS MTs ([2]; 0.48 nmol glutamate plus 0.66 pmol Rp-cAMP ICVC, 24 hours)	fractional synthesis of tubulin dimers and microtubules ([2]; glutamate plus 0.66 pmol Rp-cAMP, 24 hours)	toxicity [3]
Nc1ncnc2c1ncn2[C@@H]1O[C@@H]2COP(O)(=S)O[C@H]2[C@H]1O (single isomer, unassigned) [Rp-cAMP, adenosine-3′,5′-monophosphorothioate, Rp-isomer]	blocked	blocked	blocked	significantly blocked	
[2H]O[2H] [^2H2O]					without any evidence of toxicity
